Results on two compounds are retold here after patent US20110189308A1, “METHODS TO TREAT NEURODEGENERATIVE CONDITIONS OR DISEASES BY TARGETING COMPONENTS OF A PTEN SIGNALING PATHWAY” (priority 2008, published 2011).

In the assay the test system is primary cortical cultures from (Atg7^flox/flox) mice. The assay can be described thus: Process length in primary cortical cultures from Atg7 flox/flox mice transfected with Cre plasmid, with PI3K inhibitors. It is filed as cell-based, mouse. As to conditions: FIG. 16D; 10 μM Wortmannin or 50 μM LY294002; n>45 neurons per group; mean±S.E. The text has this:
FIGS. 16A-16D. Primary midbrain neuronal cultures from autophagy-deficient Dat^Cre/+Atg7^flox/flox mice display prolonged neurites. FIG. 16A, Elongated processes in TH-positive neurons in primary midbrain cultures from autophagy-deficient (Dat^Cre/+Atg7^flox/flox) mice relative to controls (Dat^Cre/+Atg7^flox/wild). FIG. 16B, The elongated process phenotype is also apparent in primary cortical cultures from (Atg7^flox/flox) mice transfected with Cre-recombinase encoding plasmid (along with GFP plasmid) compared to primary neurons transfected with GFP plasmid alone. […] FIG. 16C, Quantitation of process length as in (A). Dat^Cre/+Atg7^flox/wild versus Dat^Cre/+Atg7^flox/flox; 0.933±0.098 mm versus 1.704±0.139 mm, p<0.01. n>49 neurons per group in at least three separate independent experiments. FIG. 16D, quantification of data as in (C). Dat^Cre/+Atg7^flox/wild versus Dat^Cre/+Atg7^flox/flox; 0.428±0.036 mm versus 0.721±0.073 mm (DMSO), 0.198±0.018 mm versus 0.217±0.021 mm (Wortmannin, WM), and 0.158±0.015 mm versus 0.176±0.018 mm (LY294002, LY). n>45 neurons per group in at least three separate independent experiments. Bar, 50 μm.**, P<0.01.
Cell Culture. For midbrain culture, midbrain tissues were dissected from newborn mice (postnatal 0 day). The tissues were minced and digested in isolation medium containing 0.25% trypsin and ascorbic acid at 37° C. for 30 min. After the incubation, the digestion was stopped by 3% fetal bovine serum and 0.25% Dnase I. The tissues were triturated 20 times by glass-pipette and filtrated by cell strainer. They were centrifuged at 1,200 rpm for 5 min, and the supernatants were removed. The cells were suspended in plating medium containing 10% fetal bovine serum and plated on poly-D-lysine and laminin-coated 24-well plates. On the next day, the plating medium was replaced by culture medium containing 1% fetal bovine serum and antimitotic agent. The cells were kept on 37° C. for three more days. For cortical culture, cortical tissues were dissected from newborn mice (postnatal 0 day). The tissues were minced and digested in isolation medium containing 0.25% trypsin at 37° C. for 30 min. After the incubation, the digestion was stopped by 3% fetal bovine serum and 0.25% Dnase I. The tissues were triturated 20 times by glass-pipet and filtrated by cell strainer. They were centrifuged at 1,200 rpm for 5 min, and the supernatants were removed. The cells were suspended in plating medium containing 10% fetal bovine serum and plated on poly-D-lysine and laminin-coated 24-well plates. On second day, the cells were transfected with GFP or Cre expression plasmids. To transfect the plasmids, the cells were washed in 500 μl DMEM and added 30 μl of DNA/Ca/Phosphate complex (2 μg DNA/3.75 μl 1M CaCl2/15 μl 2× HBSS). […]

For `O=c1cc(N2CCOCC2)oc2c(-c3ccccc3)cccc12` [LY294002], the “process length, Atg7-deficient neurons (Dat^Cre/+Atg7^flox/flox)” value worked out at 0.176±0.018 mm and the “process length, control neurons (Dat^Cre/+Atg7^flox/wild)” value amounted to 0.158±0.015 mm.

As to `COC[C@H]1OC(=O)c2coc3c2[C@@]1(C)C1=C(C3=O)[C@@H]2CCC(=O)[C@@]2(C)C[C@H]1OC(C)=O` [Wortmannin], the “process length, Atg7-deficient neurons (Dat^Cre/+Atg7^flox/flox)” value was found to be 0.217±0.021 mm and the “process length, control neurons (Dat^Cre/+Atg7^flox/wild)” value is reported as 0.198±0.018 mm.
